From patent US20210222123A1, “IN VITRO EXPANSION OF DOPAMINERGIC SUBTYPE NEURONAL PROGENITORS DERIVED FROM PLURIPOTENT STEM CELLS” (Wisconsin Alumni Research Foundation, priority 2019, published 2021)
Where two headings read alike, the source gives them in different places.

Assays:
DA NPCs [1] = type: cell-based
Excerpt: FGF8 and SHH are not sufficient for expanding DA NPCs: To determine if and how the DA NPCs can be expanded, a CKK8-based assay for quantifying cell numbers was first established. This assay was based on the absorbance readout from a plate reader to estimate the total cell number by monitoring mitochondrial activity, which was used for primary screening/testing for candidate molecules and validating the hits (FIG. 2A).
The optimal seeding density was first determined by plating increasing numbers of DA NPCs to each well. […] The absorbance reached a plateau when the seeding density was beyond 120,000 cell/well (FIG. 2B), and 20,000 cells/well were used for subsequent assays. Using this optimal seeding density (20,000/well), well-to-well and plate-to-plate variation (FIG. 2C) was examined. There were no obvious well-to-well and plate-to-plate variations (FIG. 2C).
Chemical screening identifies an additional compound that expands DA NPCs: The chemical screening platform was set up using FGF8+SHH as a basal condition, FGF8+SHH+DMSO as a control, and FGF8+SHH+1 as the screening mode. With the standardized screening platform (FIG. 3A), 1,200 small molecules (Tocris Total) were screened and the top 5 candidate compounds that increased the absorbance by >2 folds over the median absorbance (FIG. 3B) were identified. […] induced a 5-fold expansion on top of FGF8+SHH (FIG. 3D). We referred to it as the “FSW” cocktail.
Generation and expansion of DA NPCs: DA NPCs were generated as previously described, in particular FGF8b was added from Day 9 (Chen et al., 2016; Xi et al., 2012) (FIG. 1A). The generated DA NPCs were passaged at 10^6 cells/well on a MATRIGEL™ (1:30; PBS diluted and store in 4° C. for use in 2 weeks) coated 6-well plate as the first passage. After overnight, incubation, the medium was switched to the FSCW cocktail in the expansion medium. FSCW cocktail contained FGF8b (50 ng/ml; Peprotech), SHH (25 ng/ml; Peprotech), CHIR (0.6 μM; Tocris) and WNT-C59 (0.5 μM: Tocris). The expansion medium consisted of DF12 basal medium (ThermoFisher), B27 (100×; ThermoFisher), Glutamax (100×; ThermoFisher) and NEAA (100×; ThermoFisher). The cells were passaged every 5 days at the ratio of 1:3. To digest the cells, the cultures were incubated in PBS-diluted EDTA (1:100; Thermo) at 37° C. for 5 minutes before lifting the cells by adding 2 ml DF12 basal medium using cell lifter (Coring) and collecting the cells into a centrifuge tube. Following centrifugation at 1000 rpm for 2 minutes and removal of the supernatant, the cells were resuspended in the expansion medium with FSCW cocktail and seeded onto the coated plates as described above. Y27632 (10 uM; Tocris) was added overnight to improve cell survival.

DA NPCs [2] = assay: DA NPC identity by immunostaining of DA marker co-expression; type: cell-based, human
Experimental: Immunostaining and Quantification: Cells on coverslips/wells were rinsed with PBS and fixed in 4% paraformaldehyde for 20 minutes. After rinsing with PBS twice, cells were treated with 0.3% Triton for 10 min followed by 10% donkey serum for 1 hour before incubating with primary antibodies overnight at 4° C. Cells were then incubated for 1 hour at room temperature with fluorescently-conjugated secondary antibodies (Life Technologies). The nuclei were stained with Hoechst (Ho) (Sigma-Aldrich). Images were taken with a Nikon A1R-Si laser-scanning confocal microscope (Nikon, Tokyo, Japan). The primary antibodies used include the followings: Goat anti-OTX2 (1:1000, R&D), Rabbit anti-LMX1A (1:500, Abcam), […], Goat anti-FOXA2 (1:500, Santa Cruz), Mouse anti-EN1 (1:200, 4G11-C, DSHB), Rat anti-Corin (1:100, R&D Systems), Rabbit anti-TH (1:500, Pel-Freez Biologicals), Mouse anti-TUJ1 (1:500, Santa Cruz Biotechnology), Mouse anti-MAP2 (1:200, Sigma-Aldrich), Rabbit anti-GIRK2 (1:80, Alomone Labs), Rabbit anti-SOX6 (1:1000, Sigma-Aldrich), Mouse anti-Stem121 (1:500, Clonetech). For quantifying DA NPC populations, cells were counted among the total Hoechst labeled nuclei. Three independent cultures (n=3) were analyzed.

[3] = FGF2 alone, 10 to 200 ng/ml, one passage in 5 days

## Cc1c[nH]c(-c2cnc(NCCNc3ccc(C#N)cn3)nc2-c2ccc(Cl)cc2Cl)n1 [CHIR, CHIR99021]
DA NPCs [1]; CHIR alone, range of doses
  expansion of DA NPCs: expanded the DA NPCs
DA NPCs [1]; CHIR at a low dose (0.6 μM)
  expansion of DA NPCs: expanded the DA NPCs
DA NPCs [2]; CHIR alone
  dose window in which DA NPC identity (co-expression of LMX1A and OTX2) was retained: 0.6 µM
DA NPCs [2]; CHIR alone, concentrations lower or higher than 0.6 μM
  DA identity: loss of DA identity
DA NPCs [2]; CHIR at a low dose (0.6 μM)
  cellular identity of DA NPCs: did not alter their cellular identity

## FGF2: growth factor reported for expanding pan-NPCs or specified NPCs
DA NPCs [1]; [3]
  cell proliferation: induced dramatic cell proliferation
DA NPCs [2]; [3]
  DA NPC identity (co-expression of LMX1A and OTX2): loss of co-expression of LMX1A and OTX2

## Cc1cc(-c2ccc(CC(=O)Nc3ccc(-c4cccnc4)cc3)cc2)ccn1 [WNT-C59]
DA NPCs [1]; WNT-C59 "At 2" (unit not given), FSW cocktail
  expansion on top of FGF8+SHH: 5 fold
DA NPCs [1]; WNT-C59 titration in FSCW cocktail
  concentration of maximum effect in the cocktail: 0.5 µM
DA NPCs [2]; on top of FGF8+SHH, 1 passage, 5 days, ratio 1:3
  DA identity after induced expansion (co-expression of LMX1A and OTX2): maintained DA identity
